From patent US20240329056A1, “COMPONENT ASSAY FOR ALZHEIMER'S DISEASE IN A LIVING SUBJECT” (CASSAVA SCIENCES, INC., priority 2021, published 2024)

Columns and labels:
[1] = test system: cytokine release; details: Wang et al., J. Neurosci. 2012; cited from earlier work
[2] = test system: about 90 kDa FLNA polypeptide fragment; test: Phase 2a trial, about 90 kDa FLNA polypeptide fragment in plasma; type: in vivo, human; details: group of 13 patients, P<0.01
Method: FIG. 13 is a graph showing the amounts in arbitrary units of the about 90 kDa FLNA polypeptide fragment found in the plasma of 13 AD patients in a Phase 2a clinical trial who were treated with a medicament twice daily for 28 days and had their blood plasma assayed on days 0, 14 and 28 for the presence and amount of the about 90 kDa FLNA polypeptide fragment.
(§1) Briefly, the study included 13 mild-to-moderate Alzheimer's disease patients, age 50-85, Mini Mental State Exam≥16 and ≤24 with a cerebrospinal fluid total tau/Aβ42 ratio […]. A pharmaceutical composition containing 100 mg of simufilam (PTI-125) in an orally administered tablet were given to the patients twice daily for 28 consecutive days. The study was conducted at five sites in the U.S. under an Investigational New Drug (IND) application.
An assay for the presence and amount of the about 90 kDa FLNA polypeptide fragment in the plasma of each patient was also separately determined on days 0, 14 and 28 of the trial. […] Those results are shown graphically in FIG. 13 and indicate that the treatment appeared to be effective and was in agreement with the more standard assays.

[3] = target: T1, filamin A (Homo sapiens, UniProt P21333); test: Phase 2a trial, target engagement in lymphocytes: filamin A conformation; type: in vivo
T1 construct: endogenous in cells; host or cells: patients' lymphocytes
T1 sequence (P21333 whole entry): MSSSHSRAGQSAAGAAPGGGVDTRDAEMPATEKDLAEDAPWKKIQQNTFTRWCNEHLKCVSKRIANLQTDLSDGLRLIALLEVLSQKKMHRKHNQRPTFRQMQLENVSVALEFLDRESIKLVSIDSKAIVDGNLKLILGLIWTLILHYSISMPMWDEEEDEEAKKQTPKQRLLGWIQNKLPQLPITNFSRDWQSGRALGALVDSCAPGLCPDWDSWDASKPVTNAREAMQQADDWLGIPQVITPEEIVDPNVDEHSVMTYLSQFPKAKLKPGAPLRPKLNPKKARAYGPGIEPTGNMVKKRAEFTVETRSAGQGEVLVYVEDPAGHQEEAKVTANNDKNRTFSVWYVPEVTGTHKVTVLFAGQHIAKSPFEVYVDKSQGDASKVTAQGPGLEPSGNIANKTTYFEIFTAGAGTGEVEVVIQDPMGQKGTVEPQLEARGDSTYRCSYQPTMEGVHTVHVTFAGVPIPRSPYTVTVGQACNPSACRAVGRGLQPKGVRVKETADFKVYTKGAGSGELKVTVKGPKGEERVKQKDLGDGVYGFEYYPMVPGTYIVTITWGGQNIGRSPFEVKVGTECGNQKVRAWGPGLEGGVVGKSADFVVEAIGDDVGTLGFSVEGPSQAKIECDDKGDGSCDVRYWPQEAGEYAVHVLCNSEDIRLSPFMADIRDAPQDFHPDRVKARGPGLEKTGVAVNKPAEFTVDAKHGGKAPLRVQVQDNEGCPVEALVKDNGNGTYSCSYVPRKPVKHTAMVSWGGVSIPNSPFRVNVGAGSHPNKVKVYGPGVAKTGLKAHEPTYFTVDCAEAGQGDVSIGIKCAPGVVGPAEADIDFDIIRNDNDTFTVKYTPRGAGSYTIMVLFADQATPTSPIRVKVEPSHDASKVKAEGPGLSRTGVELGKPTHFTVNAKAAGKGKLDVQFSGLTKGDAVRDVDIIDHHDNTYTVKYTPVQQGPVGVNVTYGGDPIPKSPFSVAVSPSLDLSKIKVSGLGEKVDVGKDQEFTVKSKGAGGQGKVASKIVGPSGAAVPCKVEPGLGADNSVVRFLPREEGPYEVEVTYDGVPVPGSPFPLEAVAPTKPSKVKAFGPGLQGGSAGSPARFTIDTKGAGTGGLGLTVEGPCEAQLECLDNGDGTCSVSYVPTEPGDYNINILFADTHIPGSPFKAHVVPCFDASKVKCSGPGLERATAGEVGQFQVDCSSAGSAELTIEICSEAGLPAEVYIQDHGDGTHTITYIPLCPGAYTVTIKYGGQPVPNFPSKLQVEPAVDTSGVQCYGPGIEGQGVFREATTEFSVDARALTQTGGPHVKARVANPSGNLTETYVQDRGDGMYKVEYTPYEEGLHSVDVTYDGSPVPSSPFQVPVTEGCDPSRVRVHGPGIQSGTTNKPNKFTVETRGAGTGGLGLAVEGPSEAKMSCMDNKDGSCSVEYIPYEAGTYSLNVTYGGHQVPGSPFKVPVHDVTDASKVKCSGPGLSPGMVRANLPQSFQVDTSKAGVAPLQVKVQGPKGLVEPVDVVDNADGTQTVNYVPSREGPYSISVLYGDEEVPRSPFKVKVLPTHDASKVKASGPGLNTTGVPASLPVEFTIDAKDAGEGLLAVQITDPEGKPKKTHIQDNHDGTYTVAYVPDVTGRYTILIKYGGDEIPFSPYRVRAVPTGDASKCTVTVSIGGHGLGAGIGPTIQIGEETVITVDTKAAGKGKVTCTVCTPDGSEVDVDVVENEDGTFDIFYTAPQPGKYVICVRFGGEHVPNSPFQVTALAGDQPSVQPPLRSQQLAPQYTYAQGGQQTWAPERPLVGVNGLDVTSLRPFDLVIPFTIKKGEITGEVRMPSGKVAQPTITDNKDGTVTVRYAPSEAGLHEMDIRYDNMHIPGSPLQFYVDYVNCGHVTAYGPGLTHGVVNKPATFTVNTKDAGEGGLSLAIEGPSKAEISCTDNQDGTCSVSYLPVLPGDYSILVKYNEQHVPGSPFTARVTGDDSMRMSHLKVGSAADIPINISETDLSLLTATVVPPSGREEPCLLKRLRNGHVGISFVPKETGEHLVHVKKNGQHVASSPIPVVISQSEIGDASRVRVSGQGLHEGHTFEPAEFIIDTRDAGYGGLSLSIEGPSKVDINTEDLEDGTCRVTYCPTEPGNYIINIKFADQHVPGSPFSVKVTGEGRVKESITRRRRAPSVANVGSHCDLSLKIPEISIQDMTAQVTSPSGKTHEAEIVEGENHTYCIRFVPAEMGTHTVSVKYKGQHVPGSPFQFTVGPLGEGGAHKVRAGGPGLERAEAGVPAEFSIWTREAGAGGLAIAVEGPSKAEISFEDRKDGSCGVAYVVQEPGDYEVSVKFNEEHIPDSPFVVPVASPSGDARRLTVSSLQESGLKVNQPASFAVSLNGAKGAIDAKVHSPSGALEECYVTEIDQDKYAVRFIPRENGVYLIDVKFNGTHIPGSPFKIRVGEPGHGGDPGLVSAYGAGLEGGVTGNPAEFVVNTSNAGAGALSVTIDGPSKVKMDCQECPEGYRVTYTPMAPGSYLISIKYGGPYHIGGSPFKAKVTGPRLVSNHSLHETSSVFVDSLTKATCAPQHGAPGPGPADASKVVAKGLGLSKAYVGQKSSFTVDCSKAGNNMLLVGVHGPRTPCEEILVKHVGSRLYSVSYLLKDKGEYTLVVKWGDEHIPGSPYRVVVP
Method: as §1
(§2) Biomarker reductions were at least p 0.001 by paired “t” test. Target engagement was shown in lymphocytes by a shift in filamin A's conformation from aberrant to native: 93% was aberrant on Day 1 vs. 40% on Day 28.

[4] = target: T2, filamin A linkages with α7-nicotinic acetylcholine receptor (Homo sapiens, UniProt P21333); test: Phase 2a trial, filamin A linkage with α7-nicotinic acetylcholine receptor; type: in vivo; details: after 28 days of treatment
T2 construct: filamin A linkages with α7-nicotinic acetylcholine receptor and toll-like receptor 4; endogenous in cells; host or cells: patients' lymphocytes
Method: as §1, §2

[5] = test system: Aβ42 complexes with α7-nicotinic acetylcholine receptor; test: Phase 2a trial, Aβ42 complexes with α7-nicotinic acetylcholine receptor; type: in vivo, human; details: after 28 days of treatment
Method: as §1, §2

[6] = target: α7-nicotinic acetylcholine receptor (Homo sapiens, UniProt P36544); details: cited from earlier work
Sequence of α7-nicotinic acetylcholine receptor (P36544 23-502): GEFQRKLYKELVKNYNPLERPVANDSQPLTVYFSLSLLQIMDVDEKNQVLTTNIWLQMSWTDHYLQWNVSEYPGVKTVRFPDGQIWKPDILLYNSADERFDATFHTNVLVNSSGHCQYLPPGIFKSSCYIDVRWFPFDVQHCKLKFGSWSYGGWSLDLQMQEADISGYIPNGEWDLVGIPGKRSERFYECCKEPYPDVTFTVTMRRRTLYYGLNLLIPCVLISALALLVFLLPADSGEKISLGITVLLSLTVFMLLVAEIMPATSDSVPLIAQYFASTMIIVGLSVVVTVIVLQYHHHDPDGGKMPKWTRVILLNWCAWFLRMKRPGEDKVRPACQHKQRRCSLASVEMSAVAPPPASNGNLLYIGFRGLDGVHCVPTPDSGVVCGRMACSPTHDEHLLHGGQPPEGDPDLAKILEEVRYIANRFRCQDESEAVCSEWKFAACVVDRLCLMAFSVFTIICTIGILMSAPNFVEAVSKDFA

[7] = test system: Aβ42 complexes with CD14; test: Phase 2a trial, Aβ42 complexes with CD14; type: in vivo, human; details: after 28 days of treatment
Method: as §1, §2

[8] = target: T3, filamin A linkages with toll-like receptor 4 (Homo sapiens, UniProt P21333); test: Phase 2a trial, filamin A linkage with toll-like receptor 4; type: in vivo; details: after 28 days of treatment
T3 construct: filamin A linkages with α7-nicotinic acetylcholine receptor and toll-like receptor 4; endogenous in cells; host or cells: patients' lymphocytes
Method: as §1, §2

[9] = test system: cerebrospinal fluid biomarkers of Alzheimer's disease pathology, neurodegeneration and neuroinflammation; test: Phase 2a clinical trial, cerebrospinal fluid and plasma biomarkers; type: in vivo, human
Text: A small Phase 2a clinical trial that utilized a contemplated prognostic method along with other methodologies was first reported in the fall of 2019. The results of that trial were thereafter reported at Clinical Trials on Alzheimer's Disease (CTAD), December 4-7th, 2019 in San Diego, CA, and were published as Wang et al., J Prev Alzheimers Dis published 7 Feb. 2020. The use of the assay disclosed herein was neither shown nor discussed in that article.
as §1
Consistent with the drug's mechanism of action and preclinical data, the simufilam (PTI-125) reduced cerebrospinal fluid biomarkers of Alzheimer's disease pathology, neurodegeneration and neuroinflammation from baseline to Day 28.
Total tau, neurogranin, and neurofilament light chain decreased by 20%, 32% and 22%, respectively. Phospho-tau (pT181) decreased 34%, evidence that the compound suppresses tau hyperphosphorylation induced by Aβ42's signaling through α7-nicotinic acetylcholine receptor. Cerebrospinal fluid biomarkers of neuroinflammation (YKL-40 and inflammatory cytokines) decreased by 5-14%. Biomarker effects were similar in plasma.
This increase is consistent with the compound's 1,000-fold reduction of Aβ42's femtomolar binding affinity to α7-nicotinic acetylcholine receptor.

[10] = target: FLNA association with toll-like receptor 4 (TLR4) (Homo sapiens, UniProt P21333); details: Wang et al., J. Neurosci. 2012; cited from earlier work
[11] = Phase 2a trial, safety and tolerability; type: in vivo, human; details: all patients, 100 mg twice daily for 28 days
Method: as §1

[12] = Phase 2a trial, plasma pharmacokinetics; type: in vivo, human
Method: as §1

[13] = test system: prefrontal cortex and hippocampus brain slices; test: Ex vivo organotypic brain slice culture with Aβ42 exposure; type: cell-based; details: rat brain slices, serum-deprived, 100 μM Aβ1-42
Method: We hypothesize that the 90-kDa pS^2152FLNA fragment is derived from degenerated and ruptured neurons in the brain.
Using two brain regions known to be vulnerable to AD damage, 200-μm sections of prefrontal cortex and hippocampus were prepared from 10-week-old rats. These brain slices were cultured as described previously (Wang et al., above) for 4 days to permit recovery of slice preparation damage. These slices were then serum-deprived and incubated with 100 μM Aβ1-42 (Aβ42).
The presence of the 90-kDa pS^2152-FLNA fragments and pS^2152-FLNA protein, as well as other biomarkers that reflect neuronal destruction, nitrated tau (nY^29-tau) and glial damage [truncated glial fibrillary acidic protein (GFAP)] in the culture medium were assessed by Western blotting. The specificity of Aβ42 was defined by Aβ421, an intrareversal peptide.
The 90-kDa pS^2152-FLNA fragment, but not full-length (280-kDa) pS^2152-FLNA protein, appears in the medium starting at 4 hours post-Aβ42 addition and steadily increases over time. […] In addition, full-length GFAP, followed by its truncated form, appears early following Aβ1-42 exposure.

[14] = cerebrospinal fluid, baseline to Day 28, 100 mg twice daily

## CN1CCC2(CC1)NCC(=O)N2Cc1ccccc1 [simufilam]
[1]
  Cytokine release: preventing
[2]; 14 days into the trial
  Amount of the 90 kDa FLNA polypeptide fragment in the plasma: decrease
[2]; 28 days into the trial
  Amount of the 90 kDa FLNA polypeptide fragment in the plasma: decrease
[3]; Day 1
  Aberrant filamin A conformation: 93%
[3]; Day 28
  Aberrant filamin A conformation: 40%
[4]
  Filamin A linkages with α7-nicotinic acetylcholine receptor: significantly reduced
[5]
  Aβ42 complexes with α7-nicotinic acetylcholine receptor: significantly reduced
[6]
  Reduction of Aβ42's femtomolar binding affinity to α7-nicotinic acetylcholine receptor: 1,000 fold
[7]
  Aβ42 complexes with CD14: significantly reduced
[8]
  Filamin A linkages with toll-like receptor 4: significantly reduced
[9]; 13 mild-to-moderate AD patients, 100 mg oral tablet twice daily for 28 days, baseline to Day 28
  Biomarker response: All patients showed a biomarker response
[9]; baseline to Day 28, 100 mg twice daily
  Aβ42 change: increased slightly
[9]; [14]
  Cerebrospinal fluid biomarkers of neuroinflammation (YKL-40 and inflammatory cytokines) decrease: 5-14%
  Neurofilament light chain decrease: 22%
  Neurogranin decrease: 32%
  Phospho-tau (pT181) decrease: 34%
  Total tau decrease: 20%
[9]; plasma compared with cerebrospinal fluid
  Biomarker effects in plasma: similar
[10]
  FLNA association with toll-like receptor 4 (TLR4): reducing
[11]
  Safety and tolerability: safe and well-tolerated
[12]; Day 28 vs. Day 1
  Drug accumulation: approximately 30%
[12]; human, plasma, AD patients, 100 mg oral twice daily
  half-life: 270 min

## Aβ42: amyloid-beta peptide generated by cleavage of amyloid precursor protein; used to induce AD-like damage in brain slices
[13]
  Time of first appearance of 90-kDa pS2152-FLNA fragment in the medium post-Aβ42 addition: 4 hours
